The numbers were not newly measured in US20220395489A1, “THERAPEUTIC APPROACH FOR TREATING INFLAMMATORY BOWEL DISEASE” (THE REGENTS OF THE UNIVERSITY OF CALIFORNIA, priority 2019, published 2022), which cites them from elsewhere.

Non-standard residues stand in square brackets, D forms with d. Residues, ends and D or L forms follow the SMILES beside them. *: point of attachment. Sta = CC(C)C[C@H](N)[C@@H](O)CC(=O)O; Isovaleryl = CC(C)CC(=O)*

The conditions of data set [1]: water.
For data set [2] the following is noted: low pH values, compared with PMSF.

Take `CC(C)CC(=O)N[C@H](C(=O)N[C@H](C(=O)N[C@@H](CC(C)C)[C@@H](O)CC(=O)N[C@@H](C)C(=O)N[C@@H](CC(C)C)[C@@H](O)CC(=O)O)C(C)C)C(C)C` [Pepstatin, Isovaleryl-Val-Val-Sta-Ala-Sta] (Isovaleryl-VV[Sta]A[Sta]-OH): the “ability to inhibit pepsin” value in the data set on pepsin is recorded as “picomolar concentrations”.

For `Cl.NCCc1ccc(S(=O)(=O)F)cc1` [AEBSF, 4-(2-aminoethyl)benzenesulfonyl fluoride hydrochloride], the solubility entry in data set [1] is recorded as “water-soluble”. The stability entry in data set [2] is listed as “more stable”.
